Laboratory results published in publication PMC8765251, “Orally administered intelligent self-ablating nanoparticles: a new approach to improve drug cellular uptake and intestinal absorption” (Drug Delivery, 2022).
Where two headings read alike, the source gives them in different places.

Test: Pharmacokinetic study
Type: in vivo
Settings: SD rats; for AUC: serum liraglutide by ELISA, n = 5/group, mean ± SD
Method: SD rats (GemPharmatech Co., Ltd.) weighing 200–220 g were fasted overnight and randomly divided into five groups(n = 5/group): […] The first four groups were administered orally. After a single administration, blood was collected and centrifuged, and serum was collected. An ELISA Kit for liraglutide was used to measure the blood concentration of liraglutide. The assay was performed according to the instructions of the ELISA Kit for liraglutide. The processed samples were tested using a microplate reader (CYT5MV microplate reader, BioTek USA Botten Instruments Co., Ltd.), and the drug concentration was calculated by plotting the curve.

BR (relative bioavailability) (oral (i.g.) versus subcutaneous liraglutide, dose-normalised AUC): 5.37%
AUC (single oral administration): 1.06118 ± 0.05655 ng·h/mL
BR (relative bioavailability) (subcutaneous injection, the reference): 100%
AUC (Sprague-Dawley, rat, sc, single subcutaneous injection, read-out: AUC): 1.98 ± 0.109 ng·h/mL
Compound: CCCCCCCCCCCCCCCC(=O)N[C@@H](CCC(=O)NCCCC[C@H](NC(=O)[C@H](C)NC(=O)[C@H](C)NC(=O)[C@H](CCC(N)=O)NC(=O)CNC(=O)[C@H](CCC(=O)O)NC(=O)[C@H](CC(C)C)NC(=O)[C@H](Cc1ccc(O)cc1)NC(=O)[C@H](CO)NC(=O)[C@H](CO)NC(=O)[C@@H](NC(=O)[C@H](CC(=O)O)NC(=O)[C@H](CO)NC(=O)[C@@H](NC(=O)[C@H](Cc1ccccc1)NC(=O)[C@@H](NC(=O)CNC(=O)[C@H](CCC(=O)O)NC(=O)[C@H](C)NC(=O)[C@@H](N)Cc1cnc[nH]1)[C@@H](C)O)[C@@H](C)O)C(C)C)C(=O)N[C@@H](CCC(=O)O)C(=O)N[C@@H](Cc1ccccc1)C(=O)N[C@H](C(=O)N[C@@H](C)C(=O)N[C@@H](Cc1c[nH]c2ccccc12)C(=O)N[C@@H](CC(C)C)C(=O)N[C@H](C(=O)N[C@@H](CCCNC(=N)N)C(=O)NCC(=O)N[C@@H](CCCNC(=N)N)C(=O)NCC(=O)O)C(C)C)[C@@H](C)CC)C(=O)O [liraglutide]
